The term IC50 denotes the concentration needed to halve the response being measured.

Each structure is given as a SMILES string. Several values for one entry are separate records, joined by “and”; a condition that tells them apart may be missing. Identical values can stand only once. Counter-ions that a name gives are not always drawn.

human P2X4 receptor, sequence (Q99571 whole entry): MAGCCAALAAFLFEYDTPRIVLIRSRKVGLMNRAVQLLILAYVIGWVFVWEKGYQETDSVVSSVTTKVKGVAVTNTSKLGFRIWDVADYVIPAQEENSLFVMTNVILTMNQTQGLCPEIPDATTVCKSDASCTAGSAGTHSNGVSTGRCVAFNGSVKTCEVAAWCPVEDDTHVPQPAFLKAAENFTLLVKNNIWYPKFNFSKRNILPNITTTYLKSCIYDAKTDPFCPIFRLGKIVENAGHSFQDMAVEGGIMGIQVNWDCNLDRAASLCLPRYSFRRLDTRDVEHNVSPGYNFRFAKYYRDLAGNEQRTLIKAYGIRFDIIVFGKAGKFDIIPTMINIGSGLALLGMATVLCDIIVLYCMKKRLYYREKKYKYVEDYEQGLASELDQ

The experiment has as its target human P2X4 receptor (Homo sapiens (Human), UniProt Q99571). Kind of experiment: P2X4 receptor antagonist activity (ATP-induced intracellular calcium, Fura-2 AM). The class given is cell-based. Particulars: 1321N1 cells stably expressing human P2X4 receptor; test substance 15 minutes before addition of ATP; Fura-2 AM F340/F380; read-out: Inhibitory activity IC50. The protocol: The ATP receptor (human P2X4) was introduced into the 1321N1 cells, and the cells were used as a stable ATP receptor expression system. The P2X4-expressing 1321N1 cells were seeded on a 96-well plate, cultured under the conditions of 37° C. and 5% CO2 for 24 hours, and used for calcium measurement. […] For the measurement, a microplate reader, Fluostar Optima (BMG Labtech), was used. The light emitted from a xenon lamp was passed through 340 nm and 380 nm filters, respectively, and irradiated on the cells, fluorescences of 510 nm, F340 and F380, emitted from the cells were measured, and change of the ratio F340/F380 was used as an index of change of intracellular calcium level. The measurement was performed by adding ATP to each well at a final concentration of 1 μM, and observing the ATP-induced Ca^2+ response over time.
The 1321N1 cells stably expressing human P2X4 receptor were seeded on a 96-well plate, cultured under the conditions of 37° C. and 5% CO2 for 24 hours, and then used for intracellular calcium measurement. Fura-2 AM, which is a calcium fluorescent indicator, was used for the intracellular calcium measurement. […] The ratio of fluorescence values obtained with excitation lights of 340 nm and 380 nm was used as an index of the change of intracellular calcium level, and the inhibitory activity of the test substance was calculated on the basis of the comparison with the value obtained in the absence of the test substance (control).
On the technique in general: Calcium assays in cells follow changes in intracellular calcium, usually with a dye or a luminescent sensor.
As for `COc1cccc(CCn2ccnc2-c2ccc(N3C(=O)CC(=O)Nc4c3ccc3ccccc43)cc2)c1` [Example 25, 5-[4 [1-(3-Methoxyphenethyl)-1H-imidazol-2-yl]phenyl]-1H-naphtho[1,2-b][1,4]diazepine-2,4(3H,5H)-dione], the IC50 was found to be 82 nM.
Regarding `O=C1CC(=O)N(c2ccc(-n3nnnc3Cc3ccccc3O)nc2)c2ccc3ccccc3c2N1` [Example 11], the IC50 amounted to 77 nM.
For the compound `O=C1CC(=O)N(c2ccc(-n3ccnc3CCc3ccco3)cc2)c2ccc3ccccc3c2N1` [Example 66, 5-[4-[2-[2-(Furan-2-yl)ethyl]-H-imidazol-1-yl]-phenyl]-1H-naphtho[1,2-b][1,4]diazepine-2,4(3H,5H)-dione hydrochloride], the IC50 was 550 nM.
With `COc1ccccc1-c1nccn1-c1ccc(N2C(=O)CC(=O)Nc3c2ccc2ccccc32)cc1` [Example 51, 5-[4-[2-(2-Methoxyphenyl)-1H-imidazol-1-yl]phenyl]-1H-naphtho[1,2-b][1,4]diazepine-2,4(3H,5H)-dione] the figure was 1700 nM; with `O=C1CC(=O)N(c2ccc(-n3ccnc3CCc3ccsc3)cc2)c2ccc3ccccc3c2N1` [Example 62, 5-[4-[2-[2-(Thiophen-3-yl)ethyl]-1H-imidazol-1-yl]phenyl]-1H-naphtho[1,2-b][1,4]diazepine-2,4(3H,5H)-dione hydrochloride], 88 nM.
With `NC(=O)c1ccccc1CCc1nccn1-c1ccc(N2C(=O)CC(=O)Nc3c2ccc2ccccc32)cc1` [Example 55, 2-[2-[1-[4-(2,4-Dioxo-3,4-dihydro-1H-naphtho[1,2-b][1,4]diazepin-5(2H)-yl)phenyl]-1H-imidazol-2-yl]ethyl]benzamide] the figure was 340 nM.
With `Cc1cccc(CCc2nnnn2-c2ccc(N3C(=O)CC(=O)Nc4c3ccc3ccccc43)cc2)n1` [Example 30, 5-[4-[5-[2-(6-Methylpyridin-2-ylethyl)-1H-tetrazol-1-yl]-phenyl]-1H-naphtho[1,2-b][1,4]diazepine-2,4(3H,5H)-dione hydrochloride] the figure was 270 nM.
Turning to `O=C1CC(=O)N(c2ccc(-n3ccnc3CCc3cccc(O)c3)cc2)c2ccc3ccccc3c2N1` [Example 43, 5-[4-[2-(3-Hydroxyphenethyl)-1H-imidazol-1-yl]phenyl]-1H-naphtho[1,2-b][1,4]diazepine-2,4(3H,5H)-dione hydrochloride], the IC50 was 53 nM and 190 nM.
With `O=C1CC(=O)N(c2ccc(-n3nnnc3CCc3cccnc3)cc2)c2ccc3ccccc3c2N1` [Example 3, 5-[4-[5-[2-(Pyridin-3-yl)ethyl]-1H-tetrazol-1-yl]phenyl]-1H-naphtho[1,2-b][1,4]diazepine-2,4(3H,5H)-dione hydrochloride] the figure was 380 nM; with `NC(=O)c1cccc(CCc2nccn2-c2ccc(N3C(=O)CC(=O)Nc4c3ccc3ccccc43)cc2)c1` [Example 57, 3-[2-[1-[4-(2,4-Dioxo-3,4-dihydro-1H-naphtho[1,2-b][1,4]diazepin-5(2H)-yl)phenyl]-1H-imidazol-2-yl]ethyl]benzamide], 130 nM; with `CC1(C)CN(c2ccc(N3C(=O)CC(=O)Nc4c3ccc3ccccc43)cc2)C(CCc2ccccc2)=N1` [Example 74, 5-[4-(4,4-Dimethyl-2-phenethyl-4,5-dihydro 1H-imidazol-1-yl)phenyl]-1H-naphtho[1,2-b][1,4]diazepine-2,4(3H,5H)-dione hydrochloride], 2500 nM.
In the case of `O=C1CC(=O)N(c2ccc(-c3nc[nH]c3-c3ccccc3)cc2)c2ccc3ccccc3c2N1` [Example 72, 5-[4-(5-Phenyl-1H-imidazol-4-yl)phenyl]-1H-naphtho[1,2-b][1,4]diazepine-2,4(3H,5H)-dione hydrochloride], the IC50 came to 3400 nM.
`O=C1CN=C(c2ccc(-n3nnnc3CCc3ccccc3)cc2)c2ccc3ccccc3c2N1` [Example 40, 5-[4-(5-Phenethyl-1H-tetrazol-1-yl)phenyl]-1H-naphtho[1,2-e][1,4]diazepin-2(3H)-one]: the IC50 stood at 630 nM.
Take `COc1c(F)cccc1CCc1nccn1-c1ccc(N2C(=O)CC(=O)Nc3c2ccc2ccccc32)cc1` [Example 83, 5-[4-[(2-(3-Fluoro-2-methoxyphenyl)ethyl)-1H-imidazol-1-yl]phenyl]-1H-naphtho[1,2-b][1,4]diazepine-2,4(3H,5H)-dione hydrochloride]: the IC50 is 87 nM.
With `N#Cc1ccccc1CCc1nccn1-c1ccc(N2C(=O)CC(=O)Nc3c2ccc2ccccc32)cc1` [Example 54, 2-[2-[1-[4-(2,4-Dioxo-3,4-dihydro-1H-naphtho[1,2-b][1,4]diazepin-5(2H)-yl)phenyl]-1H-imidazol-2-yl]ethyl]benzonitrile] the figure was 190 nM; with `O=C1CN=C(c2ccc(-n3ccnc3CCc3ccccc3)cc2)c2ccc3ccccc3c2N1` [Example 41, 5-[4-(2-Phenethyl-1H-imidazol-1-yl)phenyl]-1H-naphtho[1,2-e][1,4]diazepin-2(3H)-one dihydrochloride], 650 nM.
With `O=C1CC(=O)N(c2ccc(-n3ccnc3CCc3cccc(F)c3)cc2)c2ccc3c(c2N1)CCC3` [Example 79, 5-[4-[2-(3-Fluorophenethyl)-1H-imidazol-1-yl]phenyl]-5,8,9,10-tetrahydroindeno[4,5-b][1,4]diazepine-2,4(1H,3H)-dione hydrochloride], the IC50 turned out to be 39 nM.
As for `O=C1CC(=O)N(c2ccc(-c3nccn3CCc3ccccc3)cc2)c2ccc3ccccc3c2N1` [Example 22, 5-[4-(1-Phenethyl-1H-imidazol-2-yl)phenyl]-1H-naphtho[1,2-b][1,4]diazepine-2,4(3H,5H)-dione hydrochloride], the figure is 91 nM; as for `NC(=O)c1ccccc1Cn1ccnc1-c1ccc(N2C(=O)CC(=O)Nc3c2ccc2ccccc32)cc1` [Example 53, 2-[[2-[4-(2,4-Dioxo-3,4-dihydro-1H-naphtho[1,2-b][1,4]diazepin-5(2H)-yl)phenyl]-1H-imidazol-1-yl]methyl]benzamide], 590 nM; as for `O=C1CC(=O)N(c2ccc(-n3nnnc3Cc3ccccc3O)cc2)c2ccc3ccccc3c2N1` [Example 2, 5-[4-[5-(2-Hydroxybenzyl)-1H-tetrazol-1-yl]phenyl]-1H-naphtho[1,2-b][1,4]diazepine-2,4(3H,5H)-dione], 37 nM.
As for `CC(C)(Cc1nnnn1-c1ccc(N2C(=O)CC(=O)Nc3c2ccc2ccccc32)cc1)c1ccccn1` [Example 69, 5-[4-[5-[2-Methyl-2-(pyridin-2-yl)propyl]-1H-tetrazol-1-yl]phenyl]-1H-naphtho[1,2-b][1,4]diazepine-2,4(3H,5H)-dione hydrochloride], the figure is 5400 nM; as for `O=C1CC(=O)N(c2ccc(-n3ccnc3CCc3ccccc3F)cc2)c2ccc3c(c2N1)CCC3` [Example 67, 5-[4-[2-(2-Fluorophenethyl)-1H-imidazol-1-yl]phenyl]-5,8,9,10-tetrahydroindeno[4,5-b][1,4]diazepine-2,4(1H,3H)-dione], 53 nM.
With `O=C1CC(=O)N(c2ccc(-n3ccnc3CCc3ccccn3)cc2)c2ccc3ccccc3c2N1` [Example 71, 5-[4-[[2-(Pyridin-2-yl)ethyl]-1H-imidazol-1-yl]phenyl]-1H-naphtho[1,2-b][1,4]diazepine-2,4(3H,5H)-dione dihydrochloride] the figure was 590 nM.

These data come from US9873683B2, “P2X4 receptor antagonist” (NIPPON CHEMIPHAR CO., LTD., priority 2013, dated 2018).
